Measurements from patent US10231954B2, “Neurodegenerative therapies” (LYTIX BIOPHARMA AS, priority 2014, dated 2019).

Legend:
MKK1 = MKK1 (Homo sapiens, UniProt Q02750); assay: Kinase profiling MKK1; format: biochemical
Description: (§1) Any value less that 25 is considered to be highly significant inhibition.

PDK1 = molecular target: T1, PDK1 (Homo sapiens, UniProt O15530); assay: Kinase profiling PDK1; format: biochemical
T1 sequence (O15530 1-556): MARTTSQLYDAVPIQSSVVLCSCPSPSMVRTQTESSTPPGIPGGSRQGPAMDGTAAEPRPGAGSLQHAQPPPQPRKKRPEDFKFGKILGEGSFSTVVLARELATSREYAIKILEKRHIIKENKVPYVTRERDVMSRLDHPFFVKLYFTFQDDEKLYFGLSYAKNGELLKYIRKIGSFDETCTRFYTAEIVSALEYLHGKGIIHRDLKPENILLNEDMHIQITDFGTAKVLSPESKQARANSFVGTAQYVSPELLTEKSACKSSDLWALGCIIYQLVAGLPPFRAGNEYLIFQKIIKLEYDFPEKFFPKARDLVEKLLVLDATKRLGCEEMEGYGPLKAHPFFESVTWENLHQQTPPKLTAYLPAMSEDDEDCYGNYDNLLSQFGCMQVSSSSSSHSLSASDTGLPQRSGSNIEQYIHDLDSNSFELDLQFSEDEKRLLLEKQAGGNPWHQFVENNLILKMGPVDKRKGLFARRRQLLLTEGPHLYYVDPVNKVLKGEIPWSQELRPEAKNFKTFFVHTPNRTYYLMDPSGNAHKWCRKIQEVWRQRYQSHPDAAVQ
Description: as §1

SGK1 = molecular target: T2, SGK1 (Homo sapiens, UniProt O00141); assay: Kinase profiling SGK1; format: biochemical
T2 sequence (O00141 1-431): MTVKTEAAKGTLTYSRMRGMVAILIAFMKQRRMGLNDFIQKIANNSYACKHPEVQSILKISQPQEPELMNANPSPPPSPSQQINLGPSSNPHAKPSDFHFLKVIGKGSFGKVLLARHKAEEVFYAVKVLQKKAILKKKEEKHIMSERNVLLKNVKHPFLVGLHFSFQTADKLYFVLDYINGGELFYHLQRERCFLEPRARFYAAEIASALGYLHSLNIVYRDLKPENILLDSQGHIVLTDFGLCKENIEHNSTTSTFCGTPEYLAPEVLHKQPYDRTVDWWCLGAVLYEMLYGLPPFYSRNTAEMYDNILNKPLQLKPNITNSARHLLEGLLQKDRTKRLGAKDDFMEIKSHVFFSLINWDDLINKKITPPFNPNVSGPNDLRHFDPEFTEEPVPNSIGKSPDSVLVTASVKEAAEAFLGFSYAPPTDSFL
Description: as §1

PKCz = molecular target: T3, PKCz (Homo sapiens, UniProt Q05513); assay: Kinase profiling PKCz; format: biochemical; settings: 100 micromolar inhibitor concentration; 100 is no change
T3 sequence (Q05513 1-592): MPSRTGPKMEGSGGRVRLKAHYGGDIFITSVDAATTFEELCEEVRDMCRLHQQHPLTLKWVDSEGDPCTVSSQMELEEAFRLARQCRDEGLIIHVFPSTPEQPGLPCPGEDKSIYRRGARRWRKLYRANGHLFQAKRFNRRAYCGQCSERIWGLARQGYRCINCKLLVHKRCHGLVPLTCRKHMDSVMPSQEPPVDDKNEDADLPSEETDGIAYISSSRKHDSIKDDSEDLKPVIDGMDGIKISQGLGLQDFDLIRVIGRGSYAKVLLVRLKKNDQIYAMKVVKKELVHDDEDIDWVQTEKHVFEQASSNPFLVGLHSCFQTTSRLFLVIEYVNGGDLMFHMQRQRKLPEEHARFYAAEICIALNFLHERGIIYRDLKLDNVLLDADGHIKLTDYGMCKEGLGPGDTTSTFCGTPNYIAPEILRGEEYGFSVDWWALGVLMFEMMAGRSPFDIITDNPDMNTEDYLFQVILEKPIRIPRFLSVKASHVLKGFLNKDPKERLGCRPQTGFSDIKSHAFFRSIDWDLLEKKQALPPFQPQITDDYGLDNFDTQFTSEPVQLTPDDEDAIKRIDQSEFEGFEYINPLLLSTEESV
Description: as §1

MSK1 = MSK1 (Homo sapiens, UniProt O75582); assay: Kinase profiling MSK1; format: biochemical
Sequence of MSK1 (O75582 whole entry, species assumed): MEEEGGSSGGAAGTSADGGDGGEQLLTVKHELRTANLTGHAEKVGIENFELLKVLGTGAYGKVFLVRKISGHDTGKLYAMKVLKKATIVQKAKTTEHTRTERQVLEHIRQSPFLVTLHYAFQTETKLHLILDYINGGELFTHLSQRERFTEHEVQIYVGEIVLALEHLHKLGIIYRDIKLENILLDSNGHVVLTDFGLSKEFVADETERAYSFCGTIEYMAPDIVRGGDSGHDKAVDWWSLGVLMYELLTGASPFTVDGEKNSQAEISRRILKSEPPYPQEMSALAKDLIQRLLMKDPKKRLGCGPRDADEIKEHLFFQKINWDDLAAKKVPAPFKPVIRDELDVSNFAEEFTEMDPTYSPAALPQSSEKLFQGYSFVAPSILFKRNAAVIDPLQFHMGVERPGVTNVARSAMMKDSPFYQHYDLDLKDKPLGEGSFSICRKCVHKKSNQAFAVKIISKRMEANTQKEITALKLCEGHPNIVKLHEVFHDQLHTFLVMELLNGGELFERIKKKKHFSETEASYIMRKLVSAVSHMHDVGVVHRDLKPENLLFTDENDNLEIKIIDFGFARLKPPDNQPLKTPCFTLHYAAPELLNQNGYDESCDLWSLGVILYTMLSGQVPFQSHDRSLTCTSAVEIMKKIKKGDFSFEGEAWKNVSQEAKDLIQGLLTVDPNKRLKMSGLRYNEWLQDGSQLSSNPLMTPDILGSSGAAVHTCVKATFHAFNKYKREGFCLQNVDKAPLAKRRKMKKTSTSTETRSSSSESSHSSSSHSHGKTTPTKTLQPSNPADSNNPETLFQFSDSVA
Description: as §1

AMPK (hum) = assay: Kinase profiling AMPK (hum); format: biochemical, human
Description: as §1

TBK1 = molecular target: T4, TBK1 (Homo sapiens, UniProt Q9UHD2); assay: Kinase profiling TBK1; format: biochemical
T4 sequence (Q9UHD2 1-729): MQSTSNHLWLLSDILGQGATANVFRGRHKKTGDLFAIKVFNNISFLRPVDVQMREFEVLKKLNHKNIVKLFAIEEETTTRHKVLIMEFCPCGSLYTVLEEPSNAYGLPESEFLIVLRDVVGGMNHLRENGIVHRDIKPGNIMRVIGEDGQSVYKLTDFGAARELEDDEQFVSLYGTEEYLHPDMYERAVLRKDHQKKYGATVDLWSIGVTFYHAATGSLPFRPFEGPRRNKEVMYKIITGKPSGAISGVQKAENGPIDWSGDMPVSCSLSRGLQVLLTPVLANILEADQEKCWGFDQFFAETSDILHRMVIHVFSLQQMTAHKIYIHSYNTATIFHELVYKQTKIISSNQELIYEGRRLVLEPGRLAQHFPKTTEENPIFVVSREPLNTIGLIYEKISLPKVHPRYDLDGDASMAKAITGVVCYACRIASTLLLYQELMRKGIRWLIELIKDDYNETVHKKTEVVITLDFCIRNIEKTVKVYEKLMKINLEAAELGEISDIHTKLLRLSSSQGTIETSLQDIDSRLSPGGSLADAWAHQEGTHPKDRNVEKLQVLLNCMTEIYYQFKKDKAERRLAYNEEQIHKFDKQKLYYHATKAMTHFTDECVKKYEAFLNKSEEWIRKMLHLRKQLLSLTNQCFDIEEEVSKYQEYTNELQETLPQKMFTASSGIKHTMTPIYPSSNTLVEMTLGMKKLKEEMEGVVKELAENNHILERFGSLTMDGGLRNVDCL
Description: as §1

SRPK1 = SRPK1 (Homo sapiens, UniProt Q96SB4); assay: Kinase profiling SRPK1; format: biochemical
Sequence of SRPK1 (Q96SB4 whole entry, species assumed): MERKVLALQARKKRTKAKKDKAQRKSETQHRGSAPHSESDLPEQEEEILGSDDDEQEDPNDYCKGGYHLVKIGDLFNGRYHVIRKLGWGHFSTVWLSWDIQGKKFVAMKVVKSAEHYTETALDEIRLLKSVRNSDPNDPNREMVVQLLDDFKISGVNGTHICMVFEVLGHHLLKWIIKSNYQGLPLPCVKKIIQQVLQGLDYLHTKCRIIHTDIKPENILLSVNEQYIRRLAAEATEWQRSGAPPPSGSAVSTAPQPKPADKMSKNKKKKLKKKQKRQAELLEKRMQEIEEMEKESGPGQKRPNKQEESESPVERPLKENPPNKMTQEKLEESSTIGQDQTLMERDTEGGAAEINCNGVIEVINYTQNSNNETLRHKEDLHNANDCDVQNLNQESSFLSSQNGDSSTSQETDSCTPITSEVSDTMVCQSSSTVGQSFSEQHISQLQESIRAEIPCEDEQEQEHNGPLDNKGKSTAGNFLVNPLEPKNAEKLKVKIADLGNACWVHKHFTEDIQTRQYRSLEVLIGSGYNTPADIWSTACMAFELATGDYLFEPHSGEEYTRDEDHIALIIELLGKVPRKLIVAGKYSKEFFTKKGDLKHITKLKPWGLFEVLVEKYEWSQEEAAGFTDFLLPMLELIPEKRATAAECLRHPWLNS
Description: as §1

EF2K = EF2K (Homo sapiens, UniProt O00418); assay: Kinase profiling EF2K; format: biochemical
Description: as §1

Src = Src (Homo sapiens, UniProt P12931); assay: Kinase profiling Src; format: biochemical
Sequence of Src (P12931 whole entry, species assumed): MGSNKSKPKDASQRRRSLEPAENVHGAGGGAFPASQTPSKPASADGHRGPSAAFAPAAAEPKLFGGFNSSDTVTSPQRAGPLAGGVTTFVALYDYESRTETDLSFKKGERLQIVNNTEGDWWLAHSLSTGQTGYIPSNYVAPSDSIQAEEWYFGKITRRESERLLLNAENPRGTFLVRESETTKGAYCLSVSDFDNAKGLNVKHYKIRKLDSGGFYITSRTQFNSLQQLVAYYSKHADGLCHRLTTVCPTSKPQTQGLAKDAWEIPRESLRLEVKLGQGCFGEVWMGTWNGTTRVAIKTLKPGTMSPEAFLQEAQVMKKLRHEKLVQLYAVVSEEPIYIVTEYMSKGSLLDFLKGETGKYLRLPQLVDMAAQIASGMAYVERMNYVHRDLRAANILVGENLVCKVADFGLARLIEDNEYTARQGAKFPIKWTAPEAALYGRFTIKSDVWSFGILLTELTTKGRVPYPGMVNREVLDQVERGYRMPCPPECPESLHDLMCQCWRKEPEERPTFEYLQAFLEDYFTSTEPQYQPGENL
Description: as §1

Lck = Lck (Homo sapiens, UniProt P06239); assay: Kinase profiling Lck; format: biochemical
Sequence of Lck (P06239 whole entry, species assumed): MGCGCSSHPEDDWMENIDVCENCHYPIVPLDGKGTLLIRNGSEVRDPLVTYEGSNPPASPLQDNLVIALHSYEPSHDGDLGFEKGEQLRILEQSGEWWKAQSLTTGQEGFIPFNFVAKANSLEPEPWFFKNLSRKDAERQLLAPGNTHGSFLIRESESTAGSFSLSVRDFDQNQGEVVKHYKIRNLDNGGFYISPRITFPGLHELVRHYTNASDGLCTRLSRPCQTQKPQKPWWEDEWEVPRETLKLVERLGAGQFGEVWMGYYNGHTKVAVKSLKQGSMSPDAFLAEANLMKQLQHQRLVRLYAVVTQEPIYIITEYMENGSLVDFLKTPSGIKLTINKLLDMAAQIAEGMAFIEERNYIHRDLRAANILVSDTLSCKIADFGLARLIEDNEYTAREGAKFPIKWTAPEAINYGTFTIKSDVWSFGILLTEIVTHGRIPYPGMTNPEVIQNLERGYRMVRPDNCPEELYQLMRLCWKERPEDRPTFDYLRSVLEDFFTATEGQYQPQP
Description: as §1

SYK = SYK (Homo sapiens, UniProt P43405); assay: Kinase profiling SYK; format: biochemical
Description: as §1

HER4 = HER4 (Homo sapiens, UniProt Q15303); assay: Kinase profiling HER4; format: biochemical
Sequence of HER4 (Q15303 26-1308, species assumed): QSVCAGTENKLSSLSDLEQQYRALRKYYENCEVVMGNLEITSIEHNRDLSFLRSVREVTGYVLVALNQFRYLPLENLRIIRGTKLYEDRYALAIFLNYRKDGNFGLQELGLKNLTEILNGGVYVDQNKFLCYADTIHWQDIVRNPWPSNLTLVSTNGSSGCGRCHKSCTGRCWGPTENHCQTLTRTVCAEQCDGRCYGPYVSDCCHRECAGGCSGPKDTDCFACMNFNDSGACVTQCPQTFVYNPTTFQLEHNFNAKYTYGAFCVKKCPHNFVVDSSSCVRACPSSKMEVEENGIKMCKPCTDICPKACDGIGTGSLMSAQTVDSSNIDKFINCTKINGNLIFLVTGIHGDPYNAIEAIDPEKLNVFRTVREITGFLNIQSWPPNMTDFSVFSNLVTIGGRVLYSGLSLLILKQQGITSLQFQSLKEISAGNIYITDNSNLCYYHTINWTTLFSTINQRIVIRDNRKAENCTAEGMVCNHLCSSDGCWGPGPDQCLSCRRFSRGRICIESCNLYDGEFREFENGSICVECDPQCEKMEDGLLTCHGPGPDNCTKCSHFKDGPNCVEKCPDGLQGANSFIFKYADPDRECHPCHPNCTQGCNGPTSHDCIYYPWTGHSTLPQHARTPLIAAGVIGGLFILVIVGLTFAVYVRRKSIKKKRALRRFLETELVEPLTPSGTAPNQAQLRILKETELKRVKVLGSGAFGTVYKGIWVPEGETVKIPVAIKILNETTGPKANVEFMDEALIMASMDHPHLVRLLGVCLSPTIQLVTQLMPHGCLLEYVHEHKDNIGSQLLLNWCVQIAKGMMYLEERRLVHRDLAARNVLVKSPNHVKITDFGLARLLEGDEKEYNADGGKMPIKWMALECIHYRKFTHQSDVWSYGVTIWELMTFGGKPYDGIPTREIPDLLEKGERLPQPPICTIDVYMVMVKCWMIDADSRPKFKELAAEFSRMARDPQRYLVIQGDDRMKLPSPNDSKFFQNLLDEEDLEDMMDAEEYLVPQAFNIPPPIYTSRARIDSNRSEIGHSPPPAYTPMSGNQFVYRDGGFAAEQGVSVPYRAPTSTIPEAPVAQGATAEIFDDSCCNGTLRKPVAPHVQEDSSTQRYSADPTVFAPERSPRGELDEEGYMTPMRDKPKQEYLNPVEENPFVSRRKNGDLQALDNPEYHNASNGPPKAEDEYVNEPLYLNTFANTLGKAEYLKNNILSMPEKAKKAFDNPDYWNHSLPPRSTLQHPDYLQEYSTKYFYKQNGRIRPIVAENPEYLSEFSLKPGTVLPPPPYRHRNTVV
Description: as §1

[1] = 100 micromolar inhibitor concentration, 100 is no change
[2] = 100 micromolar inhibitor, 100 = no change

Sequence of MKK1 (Q02750 whole entry, species assumed): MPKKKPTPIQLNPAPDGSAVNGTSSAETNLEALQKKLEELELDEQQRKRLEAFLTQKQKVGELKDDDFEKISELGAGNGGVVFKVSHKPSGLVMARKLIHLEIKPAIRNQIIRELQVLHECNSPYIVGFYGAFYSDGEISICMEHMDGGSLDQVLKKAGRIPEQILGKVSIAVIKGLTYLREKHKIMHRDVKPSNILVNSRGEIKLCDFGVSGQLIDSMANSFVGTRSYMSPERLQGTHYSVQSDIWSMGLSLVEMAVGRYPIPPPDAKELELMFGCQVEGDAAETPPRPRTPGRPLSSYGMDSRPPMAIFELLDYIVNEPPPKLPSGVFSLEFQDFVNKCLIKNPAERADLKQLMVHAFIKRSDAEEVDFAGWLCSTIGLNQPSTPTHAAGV

Row | Compound | residual kinase activity, MKK1 (MKK1; [1]) | residual kinase activity, PDK1 (PDK1; [1]) | residual kinase activity, SGK1 (SGK1; [1]) | residual kinase activity, PKCz (PKCz) | residual kinase activity, AMPK (hum) (AMPK (hum); [1]) | residual kinase activity, MSK1 (MSK1; [1]) | residual kinase activity, TBK1 (TBK1; [1]) | residual kinase activity, SRPK1 (SRPK1; [1]) | residual kinase activity, EF2K (EF2K; [1]) | residual kinase activity, Src (Src; [1]) | residual kinase activity, Lck (Lck; [1]) | residual kinase activity, SYK (SYK; [1]) | residual kinase activity, HER4 (HER4; [1]) | also measured
1 | COc1ccc2sc(NC(=O)c3ccc(NC(C)=O)cc3)nc2c1 [MS:LY-2-77] | 95 | 103 | 101 | 107 | – | – | – | – | – | – | – | – | – | –
2 | COc1ccc2sc(NC(=O)c3cccc(NC(C)=O)c3)nc2c1 [MS:LY-2-85] | 83 | 80 | 75 | 101 | – | – | – | – | – | – | – | – | – | –
3 | CC(=O)Nc1ccccc1C(=O)Nc1nc2ccc(O)cc2s1 [Compound 08-39] | 106 | 66 | 35 | 38 | – | – | – | – | – | – | – | – | – | –
4 | CC(=O)Nc1cccc(C(=O)Nc2nc3ccc(O)cc3s2)c1 [Compound 03-58] | 52 | 96 | 41 | 84 | – | – | – | – | – | – | – | – | – | –
5 | CC(=O)NC(C)C(=O)Nc1nc2ccc(C(F)(F)F)cc2s1 (centres unmarked) [Compound 03-80] | 80 | 86 | 55 | 75 | – | – | – | – | – | – | – | – | – | –
6 | CC(=O)Nc1nc2ccc([N+](=O)[O-])cc2s1 [Compound 13-10] | – | – | – | – | 70 | – | – | – | – | – | – | – | – | remaining activity at 100 µM (MKK1; 100 micromolar inhibitor concentration, 100 is no change, read-out: residual kinase activity, MKK1): 62%; remaining activity at 100 µM (PDK1; 100 micromolar inhibitor concentration, 100 is no change, read-out: residual kinase activity, PDK1): 93%; remaining activity at 100 µM (SGK1; 100 micromolar inhibitor concentration, 100 is no change, read-out: residual kinase activity, SGK1): 58%; remaining activity at 100 µM (MSK1; 100 micromolar inhibitor concentration, 100 is no change, read-out: residual kinase activity, MSK1): 92%; remaining activity at 100 µM (TBK1; 100 micromolar inhibitor concentration, 100 is no change, read-out: residual kinase activity, TBK1): 89%; remaining activity at 100 µM (SRPK1; 100 micromolar inhibitor concentration, 100 is no change, read-out: residual kinase activity, SRPK1): 62%; remaining activity at 100 µM (EF2K; 100 micromolar inhibitor concentration, 100 is no change, read-out: residual kinase activity, EF2K): 95%; remaining activity at 100 µM (Src; 100 micromolar inhibitor concentration, 100 is no change, read-out: residual kinase activity, Src): 85%; remaining activity at 100 µM (Lck; 100 micromolar inhibitor concentration, 100 is no change, read-out: residual kinase activity, Lck): 79%; remaining activity at 100 µM (SYK; 100 micromolar inhibitor concentration, 100 is no change, read-out: residual kinase activity, SYK): 97%; remaining activity at 100 µM (HER4; 100 micromolar inhibitor concentration, 100 is no change, read-out: residual kinase activity, HER4): 81%
7 | O=C(Nc1nc2ccc(C(F)(F)F)cc2s1)c1ccccc1 [Compound 03-99] | 87 | 84 | 69 | – | 73 | 70 | 96 | 61 | 99 | 87 | 92 | 120 | 85 | –
8 | COc1ccc2nc(C(=O)Nc3ccccc3)sc2c1 [Compound 13-03] | – | – | – | – | – | – | – | – | – | – | – | – | – | residual kinase activity, MKK1 (MKK1; [2]): 70; residual kinase activity, PDK1 (PDK1; [2]): 113; residual kinase activity, SGK1 (SGK1; [2]): 91; residual kinase activity, MSK1 (MSK1; [2]): 97; residual kinase activity, AMPK (hum) (AMPK (hum); [2]): 99; residual kinase activity, TBK1 (TBK1; [2]): 98; residual kinase activity, SRPK1 (SRPK1; [2]): 86; residual kinase activity, EF2K (EF2K; [2]): 110; residual kinase activity, Src (Src; [2]): 100; residual kinase activity, Lck (Lck; [2]): 89; residual kinase activity, SYK (SYK; [2]): 37; residual kinase activity, HER4 (HER4; [2]): 130
9 | COc1ccc2nc(NC(=O)c3ccccc3)sc2c1 [Compound 03-98] | 105 | 101 | 78 | – | 94 | 90 | 95 | 10 | 108 | 172 | 93 | 109 | 73 | –
10 | N#Cc1ccc2nc(NC(=O)c3ccccc3)sc2c1 [Compound 03-106] | 58 | 106 | 77 | – | 80 | 64 | 94 | 7 | 100 | 85 | 95 | 93 | 82 | –
11 | COC(=O)c1cccc(C(=O)Nc2nc3cc(OC)ccc3s2)c1 [Compound 03-108] | 94 | 101 | 83 | – | 101 | 88 | 102 | 68 | 91 | 169 | 100 | 96 | 99 | –
12 | O=C(Nc1nc2ccc(F)cc2s1)c1ccccc1 [Compound 03-92] | 93 | 91 | 93 | – | 76 | 81 | 92 | 19 | 134 | 74 | 102 | 117 | 90 | –
